“Also recorded” adds a separate entry of the source.
Columns and labels:
C57B16 mice [1] = test: Open field test; assay type: in vivo; conditions: 20 and 50 mg/kg i.p. once daily for 7 days prior to testing, FIG. 3
Excerpt: The Open Field test is designed to measure behavioural responses such as locomotor activity, hyperactivity, and exploratory behaviors. Open Field is also used as a measure of anxiety. Rats and mice tend to avoid brightly illuminated, novel, open spaces, so the open field environment acts as an anxiogenic stimulus and allows for measurement of anxiety-induced locomotor activity and exploratory behaviours. Open field testing is a one trial test with little or no impact on the animal's subsequent behaviour. The apparatus for the Open Field test was a square (100 cm by 100 cm) made of white Perspex. Each rat is placed in a corner of the field and its behaviour recorded for five minutes. All activity is recorded by a video camera mounted above the open field and scored in real-time (or digitized and scored later) by the advanced motion-recognition software package Ethovision by Noldus, that detects and analyzes the movements of the rat or mouse. The total distance, average speed, rearing/elongation behaviour, and time spent in various parts of the field (such as, for example, the border areas vs. the open, middle area) is measured and analysed. Testing is carried out in a temperature, noise and light controlled room.
The Experimental protocol employed in the behavioural evaluation of Meparfynol is outlined in FIG. 7. Two separate cohorts of C57B16 mice were employed. […]

C57B16 mice [2] = test: Novel object recognition (NOR) test; assay type: in vivo; conditions: FIG. 4
Excerpt: This test is useful for evaluating the role of experimental manipulations on cognition. The recognition test is based on the natural tendency of rodents to investigate a novel object instead of a familiar one. The choice to explore the novel object reflects the use of learning and (recognition) memory processes. Novel Object Recognition (NOR) is based on the premise that rodents will explore a novel object more than a familiar one, but only if they remember the familiar one. This tendency is actually shared by humans, as looking time is often used to make inferences about an infant's memory in the absence of explicit, verbal recognition.
Before training the animals with objects, they are first allowed to acclimatise to the testing environment, a white Perspex box (30 cm by 20 cm) equipped with an overhead camera. After an acclimation session, the animals are ready for the training stage. […]
The amount of time that the rodents spends exploring each object can be calculated by hand or by using a computer program receiving input from the overhead camera. […]

C57B16 mice [3] = test: Pre-pulse inhibition (PPI) of the startle response in mice; assay type: in vivo; conditions: 20 mg/kg i.p., FIG. 5A
Excerpt: Prepulse inhibition is a procedure whereby a preceding stimulus attenuates the startle response. The reduced ability to filter out irrelevant auditory stimulation is a characteristic which is thought to contribute to certain manifestations of conditions including inattention, distractibility, and cognitive deficits. The test is quite useful for evaluating transgenic models of schizophrenia as well as to screen potential antipsychotic drugs.
An example of one way of testing for PPI: In the prepulse inhibition (PPI) procedure, the rodent is placed in a small chamber and exposed to a brief pulse of noise. […]
The main three parts of the procedure are prepulse, startle stimulus, and startle reflex. […] Startle response is measured in rodents using the so-called automated “startle chambers” or “stabilimeter chambers”, with detectors recording whole-body reaction. In humans, the movements of oculomotor muscles (“eye-blink reflex” or “eye-blink response” assessed using electromyographic recording of orbicularis oculi muscle and by oculography) could be used as a measure. […]
Mepfarynol was administered by the intraperitoneal route at the doses indicated and as per details outlined above. Values were analysed using a two way ANOVA and Student t-test and those with a p value<0.05 were accepted as significant and where appropriate are indicated with an asterisk.

rats reared in isolation = test: Pre-pulse inhibition (PPI) of the startle response in rats reared in isolation; assay type: in vivo; conditions: 20 mg/kg, p<0.05, two-way ANOVA, FIG. 5B
Excerpt: This reduction or inhibition of startle is not observed in the isolated animals.
One of the most robust, non-invasive rodent models used for studies relating to schizophrenia is isolation rearing of rats (Weiss and Feldon, 2001; Fone and Porkess, 2008). […] PPI is used as an operational measure of sensorimotor gating and is known to be defective in schizophrenics (Swerdlow et al., 1994; Ludewig et al., 2002). […] Reduction or inhibition of startle is not observed in the isolated animals control.

C57B16 mice [4] = test: Water maze spatial learning; assay type: in vivo; conditions: i.p. once daily prior to testing, FIG. 6
Method: The Morris water maze (MWM) is a test of spatial learning for rodents that relies on distal cues to navigate from start locations around the perimeter of an open swimming arena to locate a submerged escape platform. Spatial learning is assessed across repeated trials and reference memory is determined by preference for the platform area when the platform is absent.
The test apparatus consists of a large circular pool (1 m diameter, 80 cm high, temperature 26° C.) with a platform (11 cm diameter) submerged 1.5 cm below the surface. Both the pool and the platform were constructed of black polyvinyl plastic, which offered no intra-maze cues. The experimental room contained several extra-maze visual cues. During training the platform was hidden in the same quadrant 30 cm away from the edge of the maze. There were five trials, each of them beginning with the rat facing the wall of the maze in one of three different locations. The time taken for the rat to find the platform within a 90s period was recorded. Probe trials where the platform was removed from the maze and the time the animal spent in the target quadrant were also performed. […]
Finally, drugs inducing neurobehavioural profile are evaluated in the water maze spatial learning paradigm, a robust task of information acquisition and consolidation—a measure of cognitive action

[5] = tested on: receptors (cell lines that express only one type of receptor); test: Novascreen receptor affinity screen (competition with a reference ligand); assay type: binding; conditions: 1 μM Meparfynol, all top ranking receptors; FIG. 8C
Method: Analysis of receptor affinities was performed by Novascreen™ (www.novascreen.com) and those displacing >20% of the natural ligand are indicated by the filled boxes. Blood levels of Mepfarynol were determined by GC mass spectroscopy in separate samples taken from a cannulated jugular at increasing time intervals following a single intraperitoneal injection of the drug ([…]).
The higher the target inhibition value, the greater the affinity Meparfynol has for this particular receptor as it displaces a greater proportion of the reference ligand. This assay is an automated high throughput assay performed on cell lines that express only one type of receptor and was carried out by Novascreen (www.novascreen.com).

C57B16 mice [6] = test: Neurobehavioural screening (modified SHIRPA protocol), neophobia; assay type: in vivo; conditions: chronic administration protocol, 1 dose/day prior to testing
Method: The Experimental protocol employed in the behavioural evaluation of Meparfynol is outlined in FIG. 7. Two separate cohorts of C57B16 mice were employed. Cohort 1 was used to evaluate the drug effect on prepulse inhibition, open-field and novel object recognition. Cohort 2 was used to evaluate drug effects on spatial learning. The behavioural tests were administered in sequence as per day number indicated in the bar. The drug was administered by the intraperitoneal route and on the day of training the drug was administered after the behavioural analysis. Meparfynol/UCD-1216 was administered at doses of 20 and 50 mg/kg. The compounds were administered once daily, via the intraperitoneal route, for 7 days prior to testing and the animals were drug-free at time of training.
A modified SHIRPA protocol was adopted in order to provide an in vivo drug profile. The SHIRPA protocol is used in both academic and industrial environments for an initial behavioural characterisation of potential psychopharmaceuticals. The first behavioural tier analysis of our modified screen comprised open-field (FIG. 3), novel object recognition (NOR; FIG. 4), and pre-pulse inhibition (PPI; FIGS. 5A and 5B) paradigms. These psycho-pharmacological tests are described in more detail below: […]

[7] = in vivo; cited from earlier work
frontal cortex = conditions: after administration; Society for Neuroscience meeting November 2000; cited from earlier work

C#C[C@](C)(O)CC (stereo in doubt) [Meparfynol, 3-methylpent-1-yn-3-ol]
effect in the open-field paradigm (locomotor activity) (C57B16 mice [1]): little effect | working memory as measured by the NOR test (exploratory bias for the novel object) (C57B16 mice [2]; 20 and 50 mg/kg i.p. once daily for 7 days prior to testing): modest enhancement | novel object exploratory time (C57B16 mice [2]; compared to the vehicle-treated controls): significantly reduced | pre-pulse inhibition of startle response (C57B16 mice [3]): significantly enhances | pre-pulse inhibition of startle response (rats reared in isolation): significantly enhances | spatial learning in the water maze (C57B16 mice [4]): enhanced spatial learning; also recorded: significant pro-cognitive actions | percent target inhibition (reference ligand prevented from binding) [5]: less than 20% | neophobia (fear of anything new) (C57B16 mice [6]): reduced neophobia

CC12CC3CC(C)(C1)CC(N)(C3)C2 [Memantine, 1-amino-3,5-dimethyl adamantane]
administered dose excreted unchanged in urine [7]: 57-82%

COc1ccc(NS(=O)(=O)c2sc3ccc(Cl)cc3c2C)cc1N1CCNCC1 [SB-271046]
glutamate and aspartate levels in the frontal cortex (frontal cortex): significant increase | noradrenaline, dopamine or 5-HT levels (frontal cortex): without affecting

— patent publication US20110034565A1, “PSYCHO-PHARMACEUTICALS” (University College Dublin, National University of Ireland, …, priority 2008, published 2011)
